In article PMC4033217, “Characterization of Novel PI3Kδ Inhibitors as Potential Therapeutics for SLE and Lupus Nephritis in Pre-Clinical Studies” (Frontiers in Immunology, 2014):
Entries after “also recorded” stand apart in the source; their conditions may differ. Read-outs that look alike come from different tables or passages of the source.

Assays:
[1] = tested on: panel of 278 additional kinases; assay: Kinase selectivity profile at 10 µM; format: biochemical; conditions: significant inhibition = >50%, ATP at Km
[2] = tested on: CD4+CD45RA− memory T-cells; assay: T-cell cytokine release assay (anti-CD3/anti-CD28); format: cell-based, human; conditions: for IC50: Homo sapiens, T-cell, 120 h, memory T-cells, anti-CD3 and anti-CD28, 5 days
Protocol: Purified T-cells were incubated with PI3Kδ inhibitors for 1 h, and stimulated with 5 μg/ml anti-CD3 and 2 μg/ml anti-CD28 for 5 days. Cytokines in the supernatants were measured with Luminex® xMAP® multiplex bead assay kits (Bio-Rad, Hercules, CA, USA).

NZB/W F1 mice = assay: IFNα-accelerated NZB/W F1 mouse SLE model; format: in vivo
Protocol: All protocols and procedures were conducted according to German animal protection law (Tierschutzgesetz) and were approved by the local veterinarian authorities (Regierungspräsidium, Darmstadt, Germany). Ten-week-old female NZB/W F1 mice (Jackson Laboratories, Bar Harbor, ME, USA) were given a single i.v. injection of 1 × 10^8 IU/100 μl of AdV-IFN-α (adenovirus with mmIfna5_v1 insert, Biofocus, CoA.NL.09.160) in saline or left untreated (sham). Drug treatments were either initiated at 2 weeks (early intervention regimen) or 4 weeks (late intervention regimen) post AdV-IFN-α delivery until the end of the experiment (at 10 weeks). […] Serum and urine samples were collected for anti-dsDNA antibodies (by ELISA) and urinary protein creatinine ratio (UPCR) (measured by ADVIA 1800) determination, respectively, on the days indicated. Proteinuria is defined as UPCR >3.

Hck = Hck (Homo sapiens, UniProt P08631); assay: Hck kinase inhibition; format: biochemical
[3] = Human PK prediction based on allometric scaling; conditions: data not shown
PI3K δ [4] = assay: Scintillation proximity assay, PI3Kδ enzymatic activity; format: biochemical, human
PI3K δ [5] = biological target: PI3K δ (Homo sapiens, UniProt O00329); assay: as above; format: biochemical; conditions: PI3K δ; 65 μM ATP; read-out: Enzymatic potency IC50
[6] = tested on: 12 BioMAP human primary cell co-culture systems; assay: BioMAP profiling in 12 human primary cell co-culture systems; conditions: any concentration (from 10 to 33.3 μM as printed), any culture system
Protocol: Overt cytotoxicity of test compounds was assessed by total cell protein staining sulforhodamine B (Sigma-Aldrich, St. Louis, MO, USA) for adherent cells, or by cell viability staining Alamar Blue (Invitrogen, Carlsbad, CA, USA) for non-adherent cells.
Overtly adverse effects of
Proliferation of PBMC (T cells) was
140 quantiﬁ ed by Alamar blue reduction and proliferation of adherent cell types was quantiﬁ ed by SRB
PBMC viability was assessed by adding Alamar blue (Invitrogen, Camarillo, CA) to PBMC
SRB was performed by removing supernatants from plates, washing plates with
Plates are washed ag ain with PBS then,
Overtly cytotoxic compounds are

[7] = tested on: CD69 on CD19+ B cells, human whole blood; assay: Anti-IgM-induced CD69 in human whole blood; format: cell-based; conditions: B-cell, healthy donors, 18 h, read-out: IC50 anti-IgM-induced CD69 up-regulation
From the text: After red blood cells lysis, CD19^+ cells were gated for CD69 analysis.

CD19+ B cells [8] = assay: B cell cytokine release assay (anti-Ig, CpG ODN 2006, IFNα); format: cell-based; conditions: Homo sapiens, 48 h
Protocol: Cytokines in the supernatants were measured with Cytometric Bead Array kits (BD Biosciences Pharmingen, San Diego, CA, USA).

pAkt in Ramos B cells = assay: BCR-crosslinking (anti-IgM)-induced Akt phosphorylation in Ramos cells; format: cell-based; conditions: Homo sapiens, 0.25 h, anti-IgM 15 min
PI3K α = PI3K α (Homo sapiens, UniProt P42336); assay: Scintillation proximity assay, PI3Kα enzymatic activity; format: biochemical; conditions: 65 μM ATP, read-out: Enzymatic potency IC50
PI3K β = PI3K β (Homo sapiens, UniProt P42338); assay: Scintillation proximity assay, PI3Kβ enzymatic activity; format: biochemical; conditions: 65 μM ATP, read-out: Enzymatic potency IC50
[9] = Unbound plasma protein binding, human; format: in vitro ADME; conditions: unbound fraction
From the text: (§1) 36 CLint: intrinsic clearance in liver microsomes. h/m: human/mouse. Papp: apparent permeability. uPPB:
(§2) 37 unbound plasma protein binding. […]

pAkt = assay: Imax PK/PD model of BCR activation-induced pAkt response; conditions: mouse, estimated in vivo PD parameter (pAkt)
From the text: An Imax PK/PD model describing BCR activation-induced pAkt response was established using data from in vitro and ex vivo mouse whole blood assays.

CD19+ B cells [10] = assay: B cell proliferation assay (anti-IgM + IL-4, [3H]thymidine); format: cell-based, human; conditions: for IC50: anti-IgM and IL-4, 4 days
Protocol: CD19^+ B cells were isolated from PBMC of healthy volunteers by negative selection using the B cell purification kit II (Miltenyi Biotech, Bergisch Gladbach, Germany) and following manufacturer’s instructions. […] Proliferation was assessed by a multiplate beta counter (Perkin Elmer, Shelton, CT, USA).

B cell/PBMC co-culture = assay: BioMAP B–T system (B cell/PBMC co-culture, anti-IgM and mild TCR stimulation); format: cell-based, human; conditions: 84 h
Protocol: Positively selected primary normal human CD19^+ B cells and CD4^+ T-cells were obtained from AllCells (Emeryville, CA, USA). PBMC were isolated from buffy coats (Stanford Blood Center, Stanford, CA, USA).
The levels of readout parameters were measured by ELISA ([14], [15]). Measurement values for each biomarker readout in a compound-treated sample were divided by the mean value from eight DMSO control samples (from the same plate) to generate a ratio. All ratios were then log10 transformed and plotted (BioMAP profile). Overt cytotoxicity of test compounds was assessed by total cell protein staining sulforhodamine B (Sigma-Aldrich, St. Louis, MO, USA) for adherent cells, or by cell viability staining Alamar Blue (Invitrogen, Carlsbad, CA, USA) for non-adherent cells.
This system models both T-cell-dependent B cell activation and class-switching as would occur in a germinal center, and B-cell-dependent T-cell responses, such as cytokine release ([13]).

PI3K γ = PI3K γ (Homo sapiens, UniProt P48736); assay: Scintillation proximity assay, PI3Kγ enzymatic activity; format: biochemical; conditions: 65 μM ATP, read-out: Enzymatic potency IC50
Caco-2 permeability = format: in vitro ADME; conditions: human
From the text: as §1, §2

pAkt and CD69 in B cells = assay: Ex vivo mouse whole blood assays (pAkt, CD69) after oral dosing; format: in vivo; conditions: for ED50: Mus musculus, B-cell, naïve C57BL/6N mice, read-out: ED50 inhibition of pAkt and CD69
Protocol: PI3Kδ inhibitors were administered to naïve C57BL/6N mice (Charles River Laboratories, L’Arbresle, France), by gavage at indicated time points before heparinized whole blood was obtained and divided into two aliquots. One aliquot was incubated with anti-IgD as stimulation and another PBS as basal control. pAkt in B cells or CD69 up-regulation on B cell surface of each sample was measured as described for the in vitro assays. The difference between stimulated and basal levels of mean fluorescence intensity (MFI) was calculated as Δ value.

[11] = tested on: CD69 on B220+ B cells, mouse whole blood; assay: Anti-IgD-induced CD69 in mouse whole blood (in vitro); format: cell-based; conditions: B-cell
Protocol: Whole blood withdrawn from naïve C57BL/6N mice (Charles River Laboratories, L’Arbresle, France) were incubated with PI3Kδ inhibitors for 30 min and stimulated with 1/12 goat anti-mouse IgD antiserum (eBioscience, San Diego, CA, USA) for 4 h before staining with anti-B220-PerCP-Cy5.5 and anti-CD69-PE (all BD Biosciences Pharmingen, San Diego, CA, USA) for 30 min at room temperature. After red blood cells lysis, B220^+IgD^+ cells were gated for CD69 analysis.

Sequence of PI3K α (P42336 whole entry): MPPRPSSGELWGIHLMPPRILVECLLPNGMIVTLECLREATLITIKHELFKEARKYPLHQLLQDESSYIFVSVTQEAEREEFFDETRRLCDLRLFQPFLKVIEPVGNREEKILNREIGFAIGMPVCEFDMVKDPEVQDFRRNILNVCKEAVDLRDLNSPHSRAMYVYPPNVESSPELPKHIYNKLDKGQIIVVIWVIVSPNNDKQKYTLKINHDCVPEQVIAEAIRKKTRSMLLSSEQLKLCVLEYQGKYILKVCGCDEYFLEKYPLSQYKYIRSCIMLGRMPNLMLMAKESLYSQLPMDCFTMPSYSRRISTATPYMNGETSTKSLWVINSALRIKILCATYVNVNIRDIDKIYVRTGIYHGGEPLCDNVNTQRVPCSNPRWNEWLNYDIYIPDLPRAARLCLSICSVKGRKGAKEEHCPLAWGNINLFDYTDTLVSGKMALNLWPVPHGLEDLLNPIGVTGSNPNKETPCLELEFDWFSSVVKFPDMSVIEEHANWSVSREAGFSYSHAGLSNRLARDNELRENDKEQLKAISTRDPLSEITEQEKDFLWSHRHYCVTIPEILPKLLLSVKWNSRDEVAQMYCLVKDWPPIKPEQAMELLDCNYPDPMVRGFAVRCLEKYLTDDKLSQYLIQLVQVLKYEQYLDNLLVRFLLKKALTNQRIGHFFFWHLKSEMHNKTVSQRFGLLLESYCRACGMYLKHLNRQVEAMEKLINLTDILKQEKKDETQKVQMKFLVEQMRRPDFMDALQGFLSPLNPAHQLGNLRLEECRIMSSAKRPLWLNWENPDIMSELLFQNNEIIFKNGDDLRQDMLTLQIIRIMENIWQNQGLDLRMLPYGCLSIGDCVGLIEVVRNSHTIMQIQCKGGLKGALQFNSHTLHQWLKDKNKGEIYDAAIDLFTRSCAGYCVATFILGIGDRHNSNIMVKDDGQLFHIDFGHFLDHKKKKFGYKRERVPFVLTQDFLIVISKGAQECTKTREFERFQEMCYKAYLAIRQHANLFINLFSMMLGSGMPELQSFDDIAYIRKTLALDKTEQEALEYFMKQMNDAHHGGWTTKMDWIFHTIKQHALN
Sequence of PI3K α (P27986 whole entry partner): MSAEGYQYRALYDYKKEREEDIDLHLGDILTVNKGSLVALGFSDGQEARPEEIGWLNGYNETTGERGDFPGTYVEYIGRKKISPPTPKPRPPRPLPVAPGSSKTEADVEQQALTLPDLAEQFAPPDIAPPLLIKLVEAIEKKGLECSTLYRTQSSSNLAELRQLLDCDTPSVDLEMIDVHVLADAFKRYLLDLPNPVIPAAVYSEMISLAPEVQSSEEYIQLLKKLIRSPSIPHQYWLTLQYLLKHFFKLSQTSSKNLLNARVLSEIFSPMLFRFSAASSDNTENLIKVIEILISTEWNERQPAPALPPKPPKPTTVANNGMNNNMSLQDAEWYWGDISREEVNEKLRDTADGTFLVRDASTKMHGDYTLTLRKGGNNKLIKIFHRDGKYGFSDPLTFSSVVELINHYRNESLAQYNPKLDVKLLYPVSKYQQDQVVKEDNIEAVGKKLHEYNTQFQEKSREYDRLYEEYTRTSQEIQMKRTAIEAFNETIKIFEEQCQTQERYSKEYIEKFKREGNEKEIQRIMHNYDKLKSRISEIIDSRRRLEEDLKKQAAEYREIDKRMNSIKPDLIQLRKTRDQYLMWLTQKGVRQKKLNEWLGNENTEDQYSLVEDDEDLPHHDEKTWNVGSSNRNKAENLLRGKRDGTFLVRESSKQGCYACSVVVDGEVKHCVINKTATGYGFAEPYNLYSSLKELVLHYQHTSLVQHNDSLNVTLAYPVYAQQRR
Sequence of PI3K δ (Homo sapiens, UniProt O00329) (O00329 whole entry): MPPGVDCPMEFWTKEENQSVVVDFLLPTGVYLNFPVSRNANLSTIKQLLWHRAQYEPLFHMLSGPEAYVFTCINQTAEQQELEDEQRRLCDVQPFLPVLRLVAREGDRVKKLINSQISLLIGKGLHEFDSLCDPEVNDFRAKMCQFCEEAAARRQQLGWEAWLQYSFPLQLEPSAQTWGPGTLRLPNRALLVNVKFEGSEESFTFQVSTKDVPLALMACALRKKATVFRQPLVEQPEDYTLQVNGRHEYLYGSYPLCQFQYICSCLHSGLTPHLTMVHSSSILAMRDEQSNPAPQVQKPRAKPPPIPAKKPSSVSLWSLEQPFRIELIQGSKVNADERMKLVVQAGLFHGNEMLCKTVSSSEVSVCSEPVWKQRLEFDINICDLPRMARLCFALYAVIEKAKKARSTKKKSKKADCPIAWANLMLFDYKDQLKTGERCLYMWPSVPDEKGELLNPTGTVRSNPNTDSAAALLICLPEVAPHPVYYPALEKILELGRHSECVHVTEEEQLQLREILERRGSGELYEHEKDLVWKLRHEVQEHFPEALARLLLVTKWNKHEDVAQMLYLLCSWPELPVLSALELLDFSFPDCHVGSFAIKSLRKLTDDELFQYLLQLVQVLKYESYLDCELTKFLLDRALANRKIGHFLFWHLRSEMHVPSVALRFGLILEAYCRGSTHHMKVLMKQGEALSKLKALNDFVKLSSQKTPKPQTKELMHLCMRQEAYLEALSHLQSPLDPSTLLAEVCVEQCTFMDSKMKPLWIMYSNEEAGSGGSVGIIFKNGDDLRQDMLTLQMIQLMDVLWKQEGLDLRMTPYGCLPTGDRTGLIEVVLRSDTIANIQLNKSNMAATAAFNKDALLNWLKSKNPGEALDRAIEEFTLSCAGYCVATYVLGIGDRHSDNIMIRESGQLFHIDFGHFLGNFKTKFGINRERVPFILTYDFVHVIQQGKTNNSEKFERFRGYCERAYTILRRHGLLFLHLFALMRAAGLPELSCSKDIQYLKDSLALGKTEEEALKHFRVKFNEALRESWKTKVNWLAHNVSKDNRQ
Sequence of PI3K β (P42338 whole entry): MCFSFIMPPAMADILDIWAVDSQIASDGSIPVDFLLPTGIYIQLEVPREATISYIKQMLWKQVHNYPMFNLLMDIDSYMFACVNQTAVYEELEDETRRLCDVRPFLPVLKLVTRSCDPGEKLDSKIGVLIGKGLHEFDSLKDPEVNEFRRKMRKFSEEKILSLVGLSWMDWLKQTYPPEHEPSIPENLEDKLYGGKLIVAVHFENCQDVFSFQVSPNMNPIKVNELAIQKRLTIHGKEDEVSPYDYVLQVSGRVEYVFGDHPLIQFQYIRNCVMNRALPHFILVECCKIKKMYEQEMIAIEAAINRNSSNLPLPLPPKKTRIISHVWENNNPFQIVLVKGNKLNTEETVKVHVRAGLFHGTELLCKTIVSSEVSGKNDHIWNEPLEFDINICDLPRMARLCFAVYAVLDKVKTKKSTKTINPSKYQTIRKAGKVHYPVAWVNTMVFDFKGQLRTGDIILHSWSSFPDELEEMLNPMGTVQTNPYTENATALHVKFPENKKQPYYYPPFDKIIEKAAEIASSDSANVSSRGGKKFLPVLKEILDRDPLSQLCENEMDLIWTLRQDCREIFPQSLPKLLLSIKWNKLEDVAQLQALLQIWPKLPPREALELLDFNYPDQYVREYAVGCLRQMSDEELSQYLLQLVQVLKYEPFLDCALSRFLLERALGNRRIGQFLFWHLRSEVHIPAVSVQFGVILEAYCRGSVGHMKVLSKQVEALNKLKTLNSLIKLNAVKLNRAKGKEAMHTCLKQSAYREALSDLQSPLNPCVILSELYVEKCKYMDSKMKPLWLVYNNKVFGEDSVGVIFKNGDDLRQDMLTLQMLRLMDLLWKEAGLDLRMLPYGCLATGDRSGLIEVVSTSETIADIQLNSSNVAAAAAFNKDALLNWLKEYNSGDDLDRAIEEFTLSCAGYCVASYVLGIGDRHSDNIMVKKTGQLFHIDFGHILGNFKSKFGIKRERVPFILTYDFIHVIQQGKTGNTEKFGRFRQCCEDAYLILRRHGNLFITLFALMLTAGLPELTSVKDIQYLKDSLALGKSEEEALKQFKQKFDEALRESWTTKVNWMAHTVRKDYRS
Sequence of PI3K β (P27986 whole entry partner): as the sequence (P27986 whole entry partner) above
Sequence of Hck (P08631 whole entry, species assumed): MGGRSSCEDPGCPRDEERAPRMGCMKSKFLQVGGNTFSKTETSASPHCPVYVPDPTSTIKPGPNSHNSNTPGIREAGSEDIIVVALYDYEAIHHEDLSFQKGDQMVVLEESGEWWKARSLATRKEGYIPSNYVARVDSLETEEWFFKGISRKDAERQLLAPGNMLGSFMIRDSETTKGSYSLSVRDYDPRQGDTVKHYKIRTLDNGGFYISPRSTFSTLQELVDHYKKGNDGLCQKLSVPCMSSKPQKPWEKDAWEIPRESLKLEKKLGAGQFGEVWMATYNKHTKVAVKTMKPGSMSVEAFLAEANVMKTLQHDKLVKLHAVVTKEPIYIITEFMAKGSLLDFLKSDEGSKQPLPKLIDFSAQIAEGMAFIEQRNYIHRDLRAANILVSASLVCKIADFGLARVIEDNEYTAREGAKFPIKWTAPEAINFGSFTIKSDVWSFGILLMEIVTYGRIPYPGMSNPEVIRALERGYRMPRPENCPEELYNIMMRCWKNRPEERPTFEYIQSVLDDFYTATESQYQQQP

## O=C(c1nn([C@@H]2CCCN(CCN3CCOCC3)C2)c2c1CS(=O)(=O)c1cc(F)ccc1-2)N1CCOCC1 [MSC2364588, (R)-7-fluoro-3-(morpholin-4-ylcarbonyl)-1-[1-(2-morpholin-4-ylethyl)piperidin-3-yl]-1,4-dihydrothiochro-meno[4,3-c]pyrazole 5,5-dioxide]
[1]
  Inhibition of kinases in the panel: impaired Hck and PAK3 activity
[2]; read-out: IC50 IL-6
  IC50: 23 nM
[2]; read-out: IC50 IL-10
  IC50: 18 nM
[2]; read-out: IC50 IL-17
  IC50: 16 nM
[2]; read-out: IC50 TNF-α
  IC50: 57 nM
[2]; T-cell cytokines
  Potency relative to MSC2360844: 10 times
NZB/W F1 mice; half daily dose given twice daily, early intervention
  Proteinuria progression / disease severity: reduces disease severity; also recorded: Equivalent results
NZB/W F1 mice; throughout the studies, data not shown
  Drug-related body weight loss: no drug-related body weight loss
Hck
  IC50: > 10000 nM
[3]
  Predicted human half-life / dosing frequency: predicted to require twice daily dosing
PI3K δ [4]; all assays, cell types and in vitro enzymatic activity
  Potency relative to MSC2360844: 5–10 times
PI3K δ [4]; enzymatic and cellular contexts
  Potency relative to MSC2360844: 10 fold
PI3K δ [5]
  IC50: 15 nM
[6]
  Cytotoxicity: No signs of cytotoxicity
[7]
  IC50: 21 nM
CD19+ B cells [8]; read-out: IC50 IL-6
  IC50: 9 nM
CD19+ B cells [8]; read-out: IC50 IL-10
  IC50: 10 nM
CD19+ B cells [8]; read-out: IC50 TNF-α
  IC50: 18 nM
pAkt in Ramos B cells
  IC50: 57 nM
PI3K α
  IC50: 7650 nM
PI3K β
  IC50: 2450 nM
[9]
  uPPB %: 100%
pAkt
  IC50: 47 nM
CD19+ B cells [10]; B cell function
  Potency relative to MSC2360844: 10 times
CD19+ B cells [10]; Homo sapiens, B-cell, 96 h
  IC50: 7 nM
CD19+ B cells [10]
  IC50: 6 nM
B cell/PBMC co-culture
  B cell proliferation and IgG secretion, IL-17A, IL-2 and TNFα release: significantly and dose-dependently inhibited
  IL-6 levels: no effect
PI3K γ
  IC50: > 20000 nM
Caco-2 permeability
  Papp: 2.4 ×10⁻⁶ cm/s
  efflux ratio: 1.6
pAkt and CD69 in B cells; 6 h post administration
  Effect on pAkt and CD69: almost no effect
pAkt and CD69 in B cells; 1 h time point
  ED50: 3 mg/kg
pAkt and CD69 in B cells; 2 h
  ED50: ~10 mg/kg
[11]; average, read-out: average IC50 for CD69
  IC50: 16 nM
[11]; representative experiment of Figure 5B, read-out: IC50 CD69
  IC50: 18 nM
